Test results as given in PMC5646234 (ChemPhotoChem, 2017).
pKd: −log10 of the molar value.

Target: T1, Saposin B (SapB) (Homo sapiens, UniProt P07602)
T1 sequence (P07602 195-273): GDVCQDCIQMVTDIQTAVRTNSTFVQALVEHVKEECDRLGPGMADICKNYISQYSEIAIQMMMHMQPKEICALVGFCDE
Experiment: tyrosine fluorescence quenching titration
Format: binding

pKd: 4.60
Compound: CC1=C(/C=C/C(C)=C/C=C/C(C)=C/c2cc(/C=C/C=C(C)/C=C/C3=C(C)CCCC3(C)C)cc[n+]2CCO)C(C)(C)CCC1 [A2E, 2-[(1E,3E,5E,7E)-2,5-dimethyl-8-(2,6,6-trimethyl-cyclohex-1-en-1-yl)octa-1,3,5,7-tetraen-1-yl]-1-(2-hydroxyethyl)-4-[(1E,3E,5E)-4-methyl-6-(2,6,6-trimethylcyclohex-1-en-1-yl)hexa-1,3,5-trien-1-yl]pyridinium]
